Source: patent US11691950B2, “Isoquinoline-steroid conjugates and uses thereof” (priority 2018, dated 2023)
Where a name gives a salt, the structure may show the parent alone.

How the values were obtained:
[1] = test system: TOX; assay: TOX assay; format: cell-based; settings: HCl salt
Procedure: Inhibition of various kinases was assayed.

[2] = test system: myeloperoxidase activity; assay: Myeloperoxidase (MPO) activity after intravitreal LPS in mice; format: in vivo, C57B16 male mice; settings: dosed at 0 and 6 hours, collected 24 hours
Procedure: Adult C57B16 male mice were injected with 2 ng of lipopolysaccharide (LPS) intravitreally. The mice were then dosed with vehicle, compounds or control treatments (0.07% w/w, 0.02% w/w or 0.007% w/w) at times 0 and 6 hours post-injection. Aqueous humor (AH) and vitreous humor (VH) was collected 24 hours after injection of LPS and assayed for MPO activity by ELISA. Data is a compilation of two separate experiments. Statistical analysis was carried out on GraphPad prism using a multiple comparisons 1-way ANOVA with uncorrected Dunn's test. Results are shown in FIG. 5 (aqueous humor) and FIG. 6 (vitreous humor). In FIG. 5 and FIG. 6, Dex refers to dexamethasone, Compound A refers to (S)-3-amino-2-(4-(hydroxymethyl)phenyl)-N-(isoquinolin-6-yl)propanamide, *refers to p<0.05, and **refers to p<0.005. MPO levels correspond to levels of neutrophil infiltration. In the context of non-infectious inflammatory events, neutrophils cause robust levels of damage to tissues.

[3] = test system: TNFα; assay: TNFα secretion assay (LPS-treated RAW264.7 macrophages, ELISA); format: cell-based, murine; settings: RAW264.7 cells, 4 hrs
Procedure: The TNFα assay quantifies secreted TNFα from RAW264.7 immortalized murine macrophages as an indicator of inflammation. The cells were concurrently treated with LPS (as an inducer of inflammation) and a titration of test molecules or control compounds for 4 hrs. After the incubation period, the media was harvested and assayed via an ELISA assay. ODs of experimental samples are fit to those of a standard curve to extrapolate the TNFα concentration. IC50 values were calculated by fitting a curve to experimental values with the controls as the top and bottom limits of the curve. Selected compounds provided herein were subjected to this assay.

Row | SMILES | IC50 [1] [µM] | also measured
1 | C[C@@H]1C[C@H]2[C@@H]3CCC4=CC(=O)C=C[C@]4(C)[C@@]3(F)[C@@H](O)C[C@]2(C)[C@@]1(O)C(=O)COC(=O)CCC(=O)OCc1ccc([C@@H](CN)C(=O)Nc2ccc3cnccc3c2)cc1 [Example 25] | 100 | –
2 | C[C@@H]1C[C@H]2[C@@H]3CCC4=CC(=O)C=C[C@]4(C)[C@@]3(F)[C@@H](O)C[C@]2(C)[C@@]1(O)C(=O)COC(=O)c1ccc(C(=O)OCc2ccc([C@@H](CN)C(=O)Nc3ccc4cnccc4c3)cc2)cc1 [Example 66, 4-((S)-3-amino-1-(isoquinolin-6-ylamino)-1-oxopropan-2-yl)benzyl (2-((8S,9R,10S,11S,13S,14S,16R,17R)-9-fluoro-11,17-dihydroxy-10,13,16-trimethyl-3-oxo-6,7,8,9,10,11,12,13,14,15,16,17-dodecahydro-3H-cyclopenta[a]phenanthren-17-yl)-2-oxoethyl) terephthalate dihydrochloride] | 100 | –
3 | CC1(C)O[C@@H]2C[C@H]3[C@@H]4CCC5=CC(=O)C=C[C@]5(C)[C@@]4(F)[C@@H](O)C[C@]3(C)[C@]2(C(=O)COC(=O)CCC(=O)OCc2ccc([C@@H](CN)C(=O)Nc3ccc4cnccc4c3)cc2)O1 [Example 33] | 55.2 | myeloperoxidase activity in aqueous humor ([2]; FIG. 5): inhibiting effect; myeloperoxidase activity in vitreous humor ([2]; FIG. 6): inhibiting effect
4 | C[C@@H]1C[C@H]2[C@@H]3CCC4=CC(=O)C=C[C@]4(C)[C@@]3(F)[C@@H](O)C[C@]2(C)[C@@]1(O)C(=O)COC(=O)C1CC1C(=O)OCc1ccc([C@@H](CN)C(=O)Nc2ccc3cnccc3c2)cc1 (some centres unmarked) [Example 27] | 100 | –
5 | C[C@@H]1C[C@H]2[C@@H]3CCC4=CC(=O)C=C[C@]4(C)[C@@]3(F)[C@@H](O)C[C@]2(C)[C@@]1(O)C(=O)COC(=O)C[C@H](N)C(=O)OCc1ccc([C@@H](CN)C(=O)Nc2ccc3cnccc3c2)cc1 [Example 83, 1-(4-((S)-3-amino-1-(isoquinolin-6-ylamino)-1-oxopropan-2-yl)benzyl) 4-(2-((8S,9R,10S,11S,13S,14S,16R,17R)-9-fluoro-11,17-dihydroxy-10,13,16-trimethyl-3-oxo-6,7,8,9,10,11,12,13,14,15,16,17-dodecahydro-3H-cyclopenta[a]phenanthren-17-yl)-2-oxoethyl) L-aspartate trihydrochloride] | 100 | –
6 | CC(C)(C)OC(=O)NC[C@@H](C(=O)Nc1ccc2cnccc2c1)c1ccc(COC(=O)CCC(=O)OCC(=O)[C@@]2(O)CC[C@H]3[C@@H]4CCC5=CC(=O)C=C[C@]5(C)[C@H]4[C@@H](O)C[C@@]32C)cc1 [Example 14] | – | IC50 [3]: 0.621 µM
